The values below come from patent publication US8367700B2, “Substituted 4-(1.2,3,4-tetrahydroisoquinolin-2-yl)-4-oxobutyric acid amide as KCNQ2/3 modulators” (Gruenenthal GmbH, priority 2008, dated 2013).

Assay [1] addresses T1, hKCNQ2/3 (Homo sapiens, UniProt O43525+O43526). The experiment in a line: Voltage-clamp (patch-clamp) measurements on stably transfected hKCNQ2/3 CHO-K1 cell line. Format: cell-based. Further details: expressed in transfected cells; host or cells: CHO-K1 (stably transfected). Conditions: 10 μM test substance at −40 mV, current increase normalised against retigabine (10 μM), read-out: Patch-clamp % Efficacy @ 10 μM (Retigabine = 100%). As for the experimental part: Voltage-Clamp Measurements
In order to confirm a KCNQ2/3 agonistic action of the substances electrophysiologically, patch-clamp measurements (Hamill O P, Marty A, Neher E, Sakmann B, Sigworth F J: Improved patch-clamp techniques for high-resolution current recording from cells and cell-free membrane patches, Pfluger's Arch. 1981 August; 391(2):85-100) were performed in voltage-clamp mode on a stably transfected hKCNQ2/3 CHO-K1 cell line. After formation of the gigaseal the cells were first clamped at a holding potential of −60 mV. Depolarising voltage jumps up to a potential of +20 mV were then applied (increment: 20 mV, duration: 1 second) in order to confirm the functional expression of KCNQ2/3-typical currents. The substances were tested at a potential of −40 mV. First of all the current increase induced by retigabine (10 μM) at −40 mV was recorded on each cell as a positive control. After completely washing out the retigabine effect (duration: 80 s) the test substance (10 μM) was applied. The current increase induced by the test substance was normalised against the retigabine effect and stated as the relative efficacy (see below).
Background: The patch-clamp technique gives a direct electrical read-out from membranes.

The target in assay [2] is T1, hKCNQ2/3. The experiment in a line: Fluorescence assay using a voltage-sensitive dye (fluorimetry). Further details: expressed in transfected cells; host or cells: CHO-K1. Particulars: CHO-K1 cells expressing KCNQ2/3; for Emax at 1 µM: read-out: Fluorimetry % Efficacy @ 1 μM (Retigabine = 100%). Format: cell-based. As for the experimental part: Pharmacological Experiments Fluorescence Assay Using a Voltage-Sensitive Dye
Human CHO-K1 cells expressing KCNQ2/3 channels are cultivated adherently at 37° C., 5% CO2 and 95% humidity in cell culture bottles (e.g. 80 cm^2 TC flasks, Nunc) with DMEM-high glucose (Sigma Aldrich, D7777) including 10% FCS (PAN Biotech, e.g. 3302-P270521) or alternatively MEM Alpha Medium (1×, liquid, Invitrogen, #22571), 10% foetal calf serum (FCS) (Invitrogen, #10270-106, heat-inactivated) and the necessary selection antibiotics.
Before being sown out for the measurements, the cells are washed with a 1×DPBS buffer without Ca^2+/Mg^2+ (e.g. Invitrogen, #14190-094) and detached from the bottom of the culture vessel by means of Accutase (PAA Laboratories, #L11-007) (incubation with Accutase for 15 min at 37° C.). The cell count then present is determined using a CASY™ cell counter (TCC model, Scharfe System) in order subsequently to apply 20,000 to 30,000 cells/well/100 μl of the described nutrient medium, depending on density optimisation for the individual cell line, to 96-well measuring plates of the Corning™ CeIIBIND™ type (flat clear-bottom black polystyrene microplates, #3340).
Incubation is then carried out for one hour at room temperature, without gassing or adjusting the humidity, followed by incubation for 24 hours at 37° C., 5% CO2 and 95% humidity.
The voltage-sensitive fluorescent dye from the Membrane Potential Assay Kit (Red™ bulk format part R8123 for FLIPR, MDS Analytical Technologies™) is prepared by dissolving the contents of a vessel of Membrane Potential Assay Kit Red Component A in 200 ml of extracellular buffer (ES buffer, 120 mM NaCl, 1 mM KCl, 10 mM HEPES, 2 mM CaCl2, 2 mM MgCl2, 10 mM glucose; pH 7.4). After removal of the nutrient medium, the cells are washed with 200 μl of ES buffer, then covered with a layer of 100 μl of the dye solution prepared above and incubated for 45 min at room temperature with exclusion of light.
The fluorescence measurements are carried out with a BMG Labtech FLUOstar™ BMG Labtech NOVOstar™ or BMG Labtech POLARstar™ instrument (525 nm excitation, 560 nm emission, bottom-read mode). After incubation of the dye, 50 μl of the substances to be tested in the desired concentrations, or 50 μl of ES buffer for control purposes, are introduced into separate cavities of the measuring plate and incubated for 30 min at room temperature whilst being shielded from light. The fluorescence intensity of the dye is then measured for 5 min and the fluorescence value F1 of each well is thus determined at a given, constant time. 15 μl of a […] KCl solution ([…]) are then added to each well. The change in fluorescence is subsequently measured until all relevant measured values have been obtained (mainly 5-30 min). At a given time after KCl application, a fluorescence value F2 is determined, in this case at the time of the fluorescence peak.
For calculation, the fluorescence intensity F2 is compared with the fluorescence intensity F1, and the agonistic activity of the target compound on the potassium channel is determined therefrom. F2 and F1 are calculated as follows: […]
In order to determine whether a substance has an agonistic activity,
[formula] for example, can be compared with
[formula] of control cells.
[formula] is determined by adding to the reaction batch only the buffer solution instead of the substance to be tested, determining the value F1K of the fluorescence intensity, adding the potassium ions as described above and measuring a value F2K of the fluorescence intensity. Then F2K and F1K are calculated as follows: […]
A substance has an agonistic activity on the potassium channel if
[formula] is greater than
Independently of the comparison of
[formula] it is also possible to conclude that a target compound has an agonistic activity if an increase in
[formula] is to be observed as the dosage of the target compound increases. […]

For another assay, the system named is rat. The experiment in a line: Formalin test in the rat. Conditions: phase II (21-27 min after formalin administration). Format: in vivo, Sprague Dawley rats. The protocol:
The formalin test (Dubuisson, D. and Dennis, S. G., 1977, Pain, 4, 161-174) is a model for acute and chronic pain. In the tests described here, the chronic pain component (phase II of the formalin test; time interval 21-27 min after formalin administration) was analysed.
A single formalin injection into the dorsal side of one rear paw was used to induce a biphase nociceptive response in experimental animals allowed to move freely, and the response was recorded by observation of three clearly distinguishable behaviour patterns.
Formalin is administered subcutaneously in a volume of 50 μl and a concentration of 5% into the dorsal side of the right rear paw of each animal. The vehicle and the substances to be tested are administered intravenously 5 minutes before or orally 30 minutes before the formalin injection.
The specific behavioural changes, such as lifting and shaking the paw, shifting of weight by the animal and biting and licking responses, are observed and recorded continuously for 60 minutes after formalin administration. The behavioural changes are weighted differently (score 0-3) and a pain rate (PR) calculated using the formula below: PR=[(T0×0)+(T1×1)+(T2×2)+(T3×3)/180.
Sprague Dawley rats (Janvier, Belgium) are used as the phylum. The weight of the animals is between 180 and 200 g. The group size was n=10.

As a reminder, the EC50 is the concentration needed to bring the measured effect to its halfway point.

T1 sequence (O43526 whole entry): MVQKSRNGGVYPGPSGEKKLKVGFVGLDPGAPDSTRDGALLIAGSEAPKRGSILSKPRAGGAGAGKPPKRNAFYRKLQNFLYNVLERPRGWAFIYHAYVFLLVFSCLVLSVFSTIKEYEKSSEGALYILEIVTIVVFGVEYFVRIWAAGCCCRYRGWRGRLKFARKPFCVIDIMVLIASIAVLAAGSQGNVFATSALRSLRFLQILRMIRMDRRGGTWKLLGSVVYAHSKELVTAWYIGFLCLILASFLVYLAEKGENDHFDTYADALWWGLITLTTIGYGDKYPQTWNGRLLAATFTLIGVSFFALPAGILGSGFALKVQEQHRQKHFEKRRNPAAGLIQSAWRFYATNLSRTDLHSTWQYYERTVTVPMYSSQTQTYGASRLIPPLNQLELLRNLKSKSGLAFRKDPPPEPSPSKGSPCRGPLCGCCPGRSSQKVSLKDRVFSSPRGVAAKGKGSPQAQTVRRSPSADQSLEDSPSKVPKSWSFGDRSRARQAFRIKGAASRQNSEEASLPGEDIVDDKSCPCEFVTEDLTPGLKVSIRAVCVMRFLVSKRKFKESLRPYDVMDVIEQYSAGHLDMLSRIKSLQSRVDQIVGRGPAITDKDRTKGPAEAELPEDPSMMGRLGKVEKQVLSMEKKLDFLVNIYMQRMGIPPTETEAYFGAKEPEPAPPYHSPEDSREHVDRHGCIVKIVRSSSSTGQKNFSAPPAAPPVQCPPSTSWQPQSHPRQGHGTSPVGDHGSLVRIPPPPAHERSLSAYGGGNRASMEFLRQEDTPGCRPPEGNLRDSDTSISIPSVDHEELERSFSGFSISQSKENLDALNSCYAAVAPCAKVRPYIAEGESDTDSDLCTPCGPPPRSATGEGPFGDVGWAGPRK
T1 sequence (O43525 whole entry): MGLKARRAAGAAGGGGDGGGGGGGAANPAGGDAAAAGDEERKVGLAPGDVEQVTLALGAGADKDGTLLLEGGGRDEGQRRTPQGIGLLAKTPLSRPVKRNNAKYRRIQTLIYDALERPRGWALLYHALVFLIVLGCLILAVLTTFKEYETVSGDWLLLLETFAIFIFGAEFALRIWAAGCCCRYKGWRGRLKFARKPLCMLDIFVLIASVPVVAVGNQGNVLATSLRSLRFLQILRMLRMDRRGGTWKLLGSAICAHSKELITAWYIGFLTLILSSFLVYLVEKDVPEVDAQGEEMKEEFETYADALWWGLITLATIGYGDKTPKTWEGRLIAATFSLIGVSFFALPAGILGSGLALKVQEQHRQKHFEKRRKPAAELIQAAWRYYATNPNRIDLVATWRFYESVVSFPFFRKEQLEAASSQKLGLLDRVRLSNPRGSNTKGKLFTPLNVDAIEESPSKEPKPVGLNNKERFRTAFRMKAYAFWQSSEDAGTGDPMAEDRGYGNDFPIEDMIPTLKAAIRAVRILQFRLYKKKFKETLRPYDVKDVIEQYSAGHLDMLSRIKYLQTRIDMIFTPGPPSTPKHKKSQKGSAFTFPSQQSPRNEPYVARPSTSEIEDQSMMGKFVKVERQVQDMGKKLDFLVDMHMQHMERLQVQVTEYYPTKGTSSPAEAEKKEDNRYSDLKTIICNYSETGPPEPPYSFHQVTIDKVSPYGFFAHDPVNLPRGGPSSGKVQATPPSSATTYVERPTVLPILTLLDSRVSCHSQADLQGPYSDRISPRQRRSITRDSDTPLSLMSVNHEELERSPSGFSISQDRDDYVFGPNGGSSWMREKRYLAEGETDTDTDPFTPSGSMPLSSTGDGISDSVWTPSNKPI

Consider `CC1c2ccccc2CCN1C(=O)CCC(=O)NCc1cccc(C(F)(F)F)c1` (stereo not drawn) [Example compound 2, 4-(1-Methyl-3,4-dihydro-1H-isoquinolin-2-yl)-4-oxo-N-[[3-(trifluoromethyl)phenyl]methyl]butyric acid amide], for which the Emax at 10 µM at hKCNQ2/3 [1] stood at 17%. The compound further yielded an EC50 on hKCNQ2/3 [2] of 10400 nM.
In the case of `O=C(CCC(=O)N1CCn2cccc2C1c1ccccc1)NCc1cccc(C(F)(F)F)c1` (stereo not drawn) [Example no. 2 in WO2008/046582, reference compound], the “Formalin test rat i.v. @ 4.64 mg/kg % Reduction of nociceptive behaviour” value in the assay with rat is on record as “No effect”.
In the case of `O=C(CCC(=O)N1CCc2ccc(F)cc2C1c1ccccc1)NCc1cccc(C(F)(F)F)c1` (stereo not drawn) [Example compound 5, 4-(7-Fluoro-1-phenyl-3,4-dihydroisoquinolin-2(1H)-yl)-4-oxo-N-(3-(trifluoromethyl)benzyl)butyric acid amide], the Emax at 1 µM at hKCNQ2/3 [2] (relative to retigabine = 100%) was 69%. This compound came in with an EC50 on hKCNQ2/3 [2] of 83 nM.
Take `O=C(CCC(=O)N1CCc2ccccc2C1c1ccccc1)NCc1cccc(C(F)(F)F)c1` (stereo not drawn) [Example compound 1, 4-Oxo-4-(1-phenyl-3,4-dihydroisoquinolin-2(1H)-yl)-N-(3-(trifluoromethyl)benzyl)butyric acid amide]: the “Formalin test rat i.v. @ 4.64 mg/kg % Reduction of nociceptive behaviour” value with rat is 40%. In addition, the Emax at 10 µM is 78% at hKCNQ2/3 [1] and 110% on hKCNQ2/3 [2] (10 μM, relative to retigabine = 100%, read-out: Fluorimetry % Efficacy @ 10 μM (Retigabine = 100%)). The compound further came in with an EC50 on hKCNQ2/3 [2] of 1900 nM.
For `COc1ccc2c(c1)C(c1ccccc1)N(C(=O)CCC(=O)NCc1cccc(C(F)(F)F)c1)CC2` (stereo not drawn) [Example compound 11, 4-(7-Methoxy-1-phenyl-3,4-dihydro-1H-isoquinolin-2-yl)-4-oxo-N-[[3-(trifluoromethyl)phenyl]methyl]butyric acid amide], the Emax at 1 µM at hKCNQ2/3 [2] (relative to retigabine = 100%) turned out to be 30%.
In the case of `Cc1ccccc1C1c2ccccc2CCN1C(=O)CCC(=O)NCc1ccc(C(F)(F)F)cc1` (stereo not drawn) [Example compound 68, 4-Oxo-4-(1-(2-tolyl)-3,4-dihydro-1H-isoquinolin-2-yl)-N-[[4-(trifluoromethyl)-phenyl]methyl]butyric acid amide], on hKCNQ2/3 [2] (relative to retigabine = 100%), the Emax at 1 µM is 56%. This compound had an EC50 at hKCNQ2/3 [2] of 149 nM.
